In PubChem BioAssay (NCI):
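Where inhibition never reached the appropriate level, the endpoint shown equals the highest concentration tested. Otherwise, values were interpolated linearly from a five-concentration, 48-hour dose response in 96-well plates. Here, GI50 denotes the concentration required for 50% inhibition of growth. At the TGI there is no net growth.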

Tests used:
Test in all cases: growth of human tumour cells (NCI), 48 h
[1] = system: A498 renal
[2] = system: OVCAR-8 ovarian
[3] = system: U251 CNS
[4] = system: OVCAR-4 ovarian
[5] = system: SR leukemia
[6] = system: 786-0 renal
[7] = system: RXF 393 renal
[8] = system: UACC-257 melanoma
[9] = system: OVCAR-5 ovarian
[10] = system: BT-549 breast

SMILES | TGI [1] [µM] | TGI [2] [µM] | TGI [3] [µM] | TGI [4] [µM] | TGI [5] [µM] | TGI [6] [µM] | TGI [7] [µM] | TGI [8] [µM] | TGI [9] [µM] | GI50 [1] [µM] | GI50 [2] [µM] | GI50 [9] [µM] | GI50 [3] [µM] | GI50 [6] [µM] | GI50 [7] [µM] | GI50 [8] [µM] | TGI [10] [µM] | GI50 [5] [µM] | GI50 [10] [µM] | GI50 [4] [µM]
CCOC(=O)/C(=C/c1cc(OC)ccc1OC)CC(=O)O | > 100 | > 100 | > 100 | > 100 | > 100 | > 31.6 | > 100 | > 100 |  |  |  |  |  |  |  |  |  |  |  | 
CC1C(=O)CCC1C(Sc1ccccc1)(Sc1ccccc1)Sc1ccccc1 (stereo not drawn) | > 100 | > 100 | > 100 | > 100 |  | > 100 | 51.3 | > 100 | > 100 |  |  |  |  |  |  |  |  |  |  | 
COc1cc(-c2nn(C)nc2-c2cc3ccccc3s2)cc(OC)c1OC | 7.63 | > 100 | 30.5 |  |  | > 100 | 46.9 | > 100 | > 100 | 0.0413 | 0.352 | 2.39 | 0.0783 | 0.312 | 0.286 | 51.5 |  |  |  | 
N#CC(NC12CC3CC(CC(C3)C1)C2)c1ccccc1 (stereo not drawn) |  | > 100 | > 100 | > 100 | > 100 | > 100 | > 100 | > 100 | > 100 |  |  |  |  |  |  |  | > 100 |  |  | 
NCC(=O)Nc1ccc(-n2nc(C(F)(F)F)cc2-c2ccc3c(ccc4ccccc43)c2)cc1 | 3.84 | 3.15 |  |  | 2.35 | 3.06 | 2.75 | 3.31 | 2.95 | 1.86 | 0.929 | 1.56 |  | 1.47 | 1.38 | 1.66 |  | 0.342 |  | 
COC(=O)C1=C2C3=C(C(=O)c4ccccc4C3=O)N(Cc3ccccc3)C2(OC(C)=O)C=CC1=O (stereo not drawn) |  | 83 | 39.4 | > 100 |  | 10.1 |  | > 100 | > 100 |  | 22.4 | 18.4 | 9.86 | 2.28 |  | 29.6 | 34.8 |  | 6.9 | 34.4
C[CH2][Sn]1([CH2]C)[O]C2C(O)OC(CO)C(O)C2[O]1 (stereo not drawn) | 42 | > 100 | 36.9 | 36.9 | 39.6 | 68.1 | > 100 | 31.8 | 47.3 | 18.9 | > 100 | 20.8 | 17.9 | 23 | 27.6 | 14.4 |  | 13.3 |  | 14.8
COc1ccc(Nc2nc(NCc3ccccc3)c3ccccc3n2)cc1 | 13.9 | 5.15 | 3.97 | 14.8 | 6.01 | 20.9 |  | 13.8 | 28 | 2.44 | 2.17 | 10.1 | 2.17 | 6.31 |  | 3.82 | 18.2 | 2.19 | 4.57 | 3.11
